Measurements: ChEMBL document CHEMBL2429821, “A Casein kinase 1/Checkpoint kinase 1 pyrazolo-pyridine protein kinase inhibitor as novel activator of the p53 pathway” (Bioorg Med Chem Lett, 2013)

Legend:
[1] = target: RAC-beta serine/threonine-protein kinase (Homo sapiens) (UniProt P31751); assay: Inhibition of human PKBbeta assessed as residual activity at 1 uM relative to control
[2] = target: MAP kinase-activated protein kinase 2 (Homo sapiens) (UniProt P49137); assay: Inhibition of human MAPKAPK2 assessed as residual activity at 10 uM relative to control
[3] = target: SRSF protein kinase 1 (Homo sapiens) (UniProt Q96SB4); assay: Inhibition of human SRPK1 assessed as residual activity at 1 uM relative to control
SRSF protein kinase 1 (Homo sapiens), sequence (Q96SB4 whole entry, canonical isoform): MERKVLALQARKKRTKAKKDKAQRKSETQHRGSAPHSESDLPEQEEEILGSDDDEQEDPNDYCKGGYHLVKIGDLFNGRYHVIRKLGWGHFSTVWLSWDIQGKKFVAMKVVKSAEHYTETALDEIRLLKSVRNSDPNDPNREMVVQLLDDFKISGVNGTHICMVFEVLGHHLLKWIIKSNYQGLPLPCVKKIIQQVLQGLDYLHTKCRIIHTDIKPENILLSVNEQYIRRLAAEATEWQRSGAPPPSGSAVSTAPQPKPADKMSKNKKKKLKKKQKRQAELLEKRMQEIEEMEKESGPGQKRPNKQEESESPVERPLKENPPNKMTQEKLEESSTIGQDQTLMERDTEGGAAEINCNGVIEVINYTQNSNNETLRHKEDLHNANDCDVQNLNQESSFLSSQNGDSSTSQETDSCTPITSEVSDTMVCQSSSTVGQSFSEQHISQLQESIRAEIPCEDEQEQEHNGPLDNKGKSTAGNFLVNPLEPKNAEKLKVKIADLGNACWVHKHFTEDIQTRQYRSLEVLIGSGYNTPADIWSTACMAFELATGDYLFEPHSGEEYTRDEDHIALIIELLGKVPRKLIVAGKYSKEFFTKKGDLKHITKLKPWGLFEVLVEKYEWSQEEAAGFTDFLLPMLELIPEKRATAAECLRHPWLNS

[4] = target: Casein kinase I isoform delta (Rattus norvegicus) (UniProt Q06486); assay: Inhibition of rat CK1delta assessed as residual activity at 10 uM relative to control
Rattus norvegicus = species on record: Rattus norvegicus; assay: Inhibition of rat AMPK assessed as residual activity at 10 uM relative to control
A-375 [5] = assay: Cell cycle arrest in human A375 cells assessed as accumulation at sub-G1 phase at 80 uM after 48 hrs by FACS flow cytometric analysis (reference value: 2.17%); assay type: functional
[6] = target: Casein kinase I isoform delta (Rattus norvegicus, UniProt Q06486); assay: Inhibition of rat CK1delta in presence of 20 uM ATP
[7] = target: T1, Mitogen-activated protein kinase 15 (Homo sapiens) (UniProt Q8TD08); assay: Inhibition of human ERK8 assessed as residual activity at 1 uM relative to control
T1 sequence (whole entry): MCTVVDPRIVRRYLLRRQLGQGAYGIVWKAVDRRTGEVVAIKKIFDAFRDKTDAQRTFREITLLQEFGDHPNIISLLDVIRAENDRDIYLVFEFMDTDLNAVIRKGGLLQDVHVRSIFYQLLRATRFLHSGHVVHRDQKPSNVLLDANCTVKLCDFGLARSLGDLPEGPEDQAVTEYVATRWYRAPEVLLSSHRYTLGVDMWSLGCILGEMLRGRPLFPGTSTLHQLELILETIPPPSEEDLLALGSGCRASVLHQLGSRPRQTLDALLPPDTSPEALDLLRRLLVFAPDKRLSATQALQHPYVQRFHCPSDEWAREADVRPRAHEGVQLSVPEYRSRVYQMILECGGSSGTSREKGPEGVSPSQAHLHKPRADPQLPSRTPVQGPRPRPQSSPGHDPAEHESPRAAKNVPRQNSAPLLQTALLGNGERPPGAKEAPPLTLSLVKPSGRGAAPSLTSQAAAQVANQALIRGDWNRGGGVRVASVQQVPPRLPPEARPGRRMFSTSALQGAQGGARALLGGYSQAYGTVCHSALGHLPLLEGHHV

A-375 [8] = assay: Cell cycle arrest in human A375 cells assessed as accumulation at G2-M phase at 80 uM after 48 hrs by FACS flow cytometric analysis (reference value: 17.3%); assay type: functional
[9] = target: T2, Mitogen-activated protein kinase 12 (Homo sapiens) (UniProt P53778); assay: Inhibition of human p38gamma MAPK assessed as residual activity at 10 uM relative to control
T2 sequence (whole entry): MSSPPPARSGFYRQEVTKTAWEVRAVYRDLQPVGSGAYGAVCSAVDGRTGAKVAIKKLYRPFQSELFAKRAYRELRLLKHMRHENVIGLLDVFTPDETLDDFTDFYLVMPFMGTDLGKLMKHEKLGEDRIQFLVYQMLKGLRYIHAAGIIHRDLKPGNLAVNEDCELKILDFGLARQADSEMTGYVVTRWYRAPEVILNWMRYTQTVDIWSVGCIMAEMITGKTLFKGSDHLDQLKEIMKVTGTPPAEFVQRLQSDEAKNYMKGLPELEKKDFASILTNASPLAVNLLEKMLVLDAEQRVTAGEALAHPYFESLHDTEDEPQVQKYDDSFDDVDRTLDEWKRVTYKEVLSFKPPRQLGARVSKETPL

[10] = target: T3, Inhibitor of nuclear factor kappa-B kinase subunit beta (Homo sapiens) (UniProt O14920); assay: Inhibition of human IKKbeta assessed as residual activity at 10 uM relative to control
T3 sequence (whole entry): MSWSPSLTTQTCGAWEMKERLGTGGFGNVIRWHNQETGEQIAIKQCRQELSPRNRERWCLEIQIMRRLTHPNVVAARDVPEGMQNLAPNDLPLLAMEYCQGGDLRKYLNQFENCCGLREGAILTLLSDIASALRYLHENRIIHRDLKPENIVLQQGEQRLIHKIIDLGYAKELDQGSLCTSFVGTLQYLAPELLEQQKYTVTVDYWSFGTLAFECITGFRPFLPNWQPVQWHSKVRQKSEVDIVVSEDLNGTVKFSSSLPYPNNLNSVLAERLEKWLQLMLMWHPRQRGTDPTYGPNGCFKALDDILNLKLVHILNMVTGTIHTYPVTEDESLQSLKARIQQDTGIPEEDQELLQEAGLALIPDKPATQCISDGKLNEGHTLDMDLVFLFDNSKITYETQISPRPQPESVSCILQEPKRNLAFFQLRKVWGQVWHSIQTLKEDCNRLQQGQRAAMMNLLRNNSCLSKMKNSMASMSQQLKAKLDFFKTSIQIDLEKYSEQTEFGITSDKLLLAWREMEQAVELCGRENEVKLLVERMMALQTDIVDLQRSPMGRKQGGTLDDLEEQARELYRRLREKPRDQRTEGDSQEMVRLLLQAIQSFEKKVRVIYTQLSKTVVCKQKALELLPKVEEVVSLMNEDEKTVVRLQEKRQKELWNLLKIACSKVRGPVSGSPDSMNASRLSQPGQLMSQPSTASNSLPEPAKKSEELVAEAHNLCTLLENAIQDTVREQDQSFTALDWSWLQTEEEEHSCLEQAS

Oryctolagus cuniculus = species on record: Oryctolagus cuniculus; assay: Inhibition of rabbit MKK1 assessed as residual activity at 1 uM relative to control
[11] = target: Mitogen-activated protein kinase 14 (Homo sapiens, UniProt Q16539); assay: Inhibition of human p38alpha MAPK in presence of 50 uM ATP
[12] = target: Serine/threonine-protein kinase PLK1 (Homo sapiens) (UniProt P53350); assay: Inhibition of human PLK1 assessed as residual activity at 10 uM relative to control
Serine/threonine-protein kinase PLK1 (Homo sapiens), sequence (P53350 whole entry): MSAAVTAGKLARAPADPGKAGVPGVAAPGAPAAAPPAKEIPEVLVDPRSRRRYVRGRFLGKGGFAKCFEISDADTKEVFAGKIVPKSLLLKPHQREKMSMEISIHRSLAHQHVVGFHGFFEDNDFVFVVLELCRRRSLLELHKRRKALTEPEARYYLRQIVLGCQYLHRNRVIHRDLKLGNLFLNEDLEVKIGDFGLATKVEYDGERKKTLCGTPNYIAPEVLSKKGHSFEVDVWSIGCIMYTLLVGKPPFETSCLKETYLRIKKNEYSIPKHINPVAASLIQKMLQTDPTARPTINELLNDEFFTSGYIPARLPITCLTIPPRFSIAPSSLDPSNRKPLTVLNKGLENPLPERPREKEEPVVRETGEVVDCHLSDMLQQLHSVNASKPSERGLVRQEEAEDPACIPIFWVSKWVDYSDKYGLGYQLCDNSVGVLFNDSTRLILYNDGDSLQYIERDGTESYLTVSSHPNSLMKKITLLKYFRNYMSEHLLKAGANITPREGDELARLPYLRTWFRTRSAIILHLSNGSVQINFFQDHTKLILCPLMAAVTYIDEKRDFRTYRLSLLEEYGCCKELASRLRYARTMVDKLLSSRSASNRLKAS

[13] = target: Tyrosine-protein kinase Yes (Homo sapiens) (UniProt P07947); assay: Inhibition of human YES1 assessed as residual activity at 1 uM relative to control
Tyrosine-protein kinase Yes (Homo sapiens), sequence (P07947 2-543 limits assumed): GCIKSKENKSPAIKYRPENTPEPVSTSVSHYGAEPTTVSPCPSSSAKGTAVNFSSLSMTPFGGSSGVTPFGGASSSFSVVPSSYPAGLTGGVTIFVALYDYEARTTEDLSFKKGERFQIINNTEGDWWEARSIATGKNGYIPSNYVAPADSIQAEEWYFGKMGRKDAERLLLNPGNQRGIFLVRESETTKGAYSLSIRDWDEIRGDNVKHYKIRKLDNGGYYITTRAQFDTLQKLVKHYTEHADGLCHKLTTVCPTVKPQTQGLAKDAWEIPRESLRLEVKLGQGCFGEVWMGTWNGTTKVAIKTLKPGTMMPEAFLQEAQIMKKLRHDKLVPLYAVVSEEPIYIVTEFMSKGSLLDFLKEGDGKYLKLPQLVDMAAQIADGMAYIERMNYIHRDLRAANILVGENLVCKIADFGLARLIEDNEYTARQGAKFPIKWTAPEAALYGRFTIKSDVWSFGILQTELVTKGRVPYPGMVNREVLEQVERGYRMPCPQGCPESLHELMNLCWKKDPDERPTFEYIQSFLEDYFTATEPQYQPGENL

[14] = target: Tyrosine-protein kinase BTK (Homo sapiens) (UniProt Q06187); assay: Inhibition of human BTK assessed as residual activity at 10 uM relative to control
Tyrosine-protein kinase BTK (Homo sapiens), sequence (Q06187 whole entry): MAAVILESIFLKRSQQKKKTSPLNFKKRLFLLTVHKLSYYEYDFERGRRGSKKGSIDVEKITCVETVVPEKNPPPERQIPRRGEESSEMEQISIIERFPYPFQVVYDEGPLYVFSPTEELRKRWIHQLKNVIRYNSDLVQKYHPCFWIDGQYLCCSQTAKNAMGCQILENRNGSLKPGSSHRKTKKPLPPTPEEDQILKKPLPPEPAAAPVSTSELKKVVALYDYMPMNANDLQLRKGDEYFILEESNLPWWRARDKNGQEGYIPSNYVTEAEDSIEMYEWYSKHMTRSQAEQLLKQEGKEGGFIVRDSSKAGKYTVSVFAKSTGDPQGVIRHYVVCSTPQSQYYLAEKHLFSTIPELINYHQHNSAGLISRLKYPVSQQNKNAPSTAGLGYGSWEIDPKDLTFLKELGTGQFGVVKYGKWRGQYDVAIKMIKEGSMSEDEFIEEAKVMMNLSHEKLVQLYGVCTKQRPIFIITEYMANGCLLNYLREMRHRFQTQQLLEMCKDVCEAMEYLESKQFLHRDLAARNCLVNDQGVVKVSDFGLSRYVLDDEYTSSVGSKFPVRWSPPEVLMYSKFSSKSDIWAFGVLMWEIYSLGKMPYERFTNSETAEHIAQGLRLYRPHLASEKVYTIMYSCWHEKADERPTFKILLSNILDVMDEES

[15] = target: Tyrosine-protein kinase CSK (Homo sapiens) (UniProt P41240); assay: Inhibition of human CSK assessed as residual activity at 10 uM relative to control
[16] = target: RAC-beta serine/threonine-protein kinase (Homo sapiens) (UniProt P31751); assay: Inhibition of human PKBbeta assessed as residual activity at 10 uM relative to control
[17] = target: Serine/threonine-protein kinase Chk2 (Homo sapiens) (UniProt O96017); assay: Inhibition of human CHK2 assessed as residual activity at 10 uM relative to control
Serine/threonine-protein kinase Chk2 (Homo sapiens), sequence (O96017 whole entry): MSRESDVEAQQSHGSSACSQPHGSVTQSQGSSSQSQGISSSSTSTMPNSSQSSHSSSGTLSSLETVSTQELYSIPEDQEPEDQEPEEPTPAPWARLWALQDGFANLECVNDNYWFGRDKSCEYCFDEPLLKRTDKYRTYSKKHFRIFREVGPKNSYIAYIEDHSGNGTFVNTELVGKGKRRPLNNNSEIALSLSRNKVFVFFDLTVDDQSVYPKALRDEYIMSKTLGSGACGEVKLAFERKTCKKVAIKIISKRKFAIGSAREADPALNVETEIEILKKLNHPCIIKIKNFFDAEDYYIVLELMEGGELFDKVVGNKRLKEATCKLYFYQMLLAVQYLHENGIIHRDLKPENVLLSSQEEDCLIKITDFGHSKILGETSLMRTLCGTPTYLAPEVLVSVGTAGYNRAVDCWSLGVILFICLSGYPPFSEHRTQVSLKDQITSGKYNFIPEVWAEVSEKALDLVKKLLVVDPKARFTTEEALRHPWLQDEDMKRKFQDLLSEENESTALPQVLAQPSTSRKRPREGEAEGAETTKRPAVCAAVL

[18] = target: Insulin receptor-related protein (Homo sapiens) (UniProt P14616); assay: Inhibition of human IRR assessed as residual activity at 10 uM relative to control
Insulin receptor-related protein (Homo sapiens), sequence (P14616 27-742 limits assumed): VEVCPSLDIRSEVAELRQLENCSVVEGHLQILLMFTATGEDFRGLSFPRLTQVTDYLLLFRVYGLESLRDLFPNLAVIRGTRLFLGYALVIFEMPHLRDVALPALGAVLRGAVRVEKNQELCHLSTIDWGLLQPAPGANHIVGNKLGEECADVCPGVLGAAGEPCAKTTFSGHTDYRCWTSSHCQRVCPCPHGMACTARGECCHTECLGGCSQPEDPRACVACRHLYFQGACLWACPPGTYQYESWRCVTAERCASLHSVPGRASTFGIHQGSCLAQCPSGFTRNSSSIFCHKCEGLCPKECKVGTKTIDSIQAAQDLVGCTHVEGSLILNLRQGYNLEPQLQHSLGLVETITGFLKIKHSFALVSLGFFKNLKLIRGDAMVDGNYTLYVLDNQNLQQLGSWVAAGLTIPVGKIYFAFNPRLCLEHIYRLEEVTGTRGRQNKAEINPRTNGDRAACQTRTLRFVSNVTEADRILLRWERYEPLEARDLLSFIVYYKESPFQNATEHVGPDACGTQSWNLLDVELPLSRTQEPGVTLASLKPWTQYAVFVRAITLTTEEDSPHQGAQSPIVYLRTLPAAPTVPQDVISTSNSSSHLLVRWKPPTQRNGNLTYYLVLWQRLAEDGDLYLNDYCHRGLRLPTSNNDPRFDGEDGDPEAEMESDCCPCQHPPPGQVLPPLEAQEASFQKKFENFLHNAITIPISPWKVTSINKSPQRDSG
Insulin receptor-related protein (Homo sapiens), sequence (P14616 747-1297 limits assumed): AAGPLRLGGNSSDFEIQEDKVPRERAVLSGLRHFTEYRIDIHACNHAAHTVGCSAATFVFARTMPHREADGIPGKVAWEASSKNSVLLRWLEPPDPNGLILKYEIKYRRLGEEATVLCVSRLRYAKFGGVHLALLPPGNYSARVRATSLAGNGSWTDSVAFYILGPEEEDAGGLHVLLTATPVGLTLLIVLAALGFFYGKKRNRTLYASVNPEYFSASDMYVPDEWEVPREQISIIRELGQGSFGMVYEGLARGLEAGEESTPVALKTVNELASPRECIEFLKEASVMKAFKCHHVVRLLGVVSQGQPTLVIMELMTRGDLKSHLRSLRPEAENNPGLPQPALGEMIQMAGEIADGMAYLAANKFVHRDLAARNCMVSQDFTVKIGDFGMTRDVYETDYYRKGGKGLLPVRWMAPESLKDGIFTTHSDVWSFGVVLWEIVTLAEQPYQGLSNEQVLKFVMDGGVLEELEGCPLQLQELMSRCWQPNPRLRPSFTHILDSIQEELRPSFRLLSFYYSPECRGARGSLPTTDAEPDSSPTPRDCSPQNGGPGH

RAC-beta serine/threonine-protein kinase (Homo sapiens), sequence (P31751 whole entry): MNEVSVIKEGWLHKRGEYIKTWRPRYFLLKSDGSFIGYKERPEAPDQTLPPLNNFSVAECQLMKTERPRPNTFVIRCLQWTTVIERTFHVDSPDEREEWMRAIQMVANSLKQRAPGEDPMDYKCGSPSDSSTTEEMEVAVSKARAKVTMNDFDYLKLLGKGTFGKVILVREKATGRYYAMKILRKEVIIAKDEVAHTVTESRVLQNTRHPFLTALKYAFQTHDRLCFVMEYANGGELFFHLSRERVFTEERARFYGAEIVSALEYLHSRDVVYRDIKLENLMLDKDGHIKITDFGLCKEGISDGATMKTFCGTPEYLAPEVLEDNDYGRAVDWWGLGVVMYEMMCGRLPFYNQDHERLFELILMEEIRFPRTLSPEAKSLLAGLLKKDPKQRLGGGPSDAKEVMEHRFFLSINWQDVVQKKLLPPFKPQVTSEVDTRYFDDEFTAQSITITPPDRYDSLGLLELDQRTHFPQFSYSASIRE

Row | SMILES | Activity [1] | Activity [2] | Activity [3] | Activity [4] | Activity (Rattus norvegicus) | Activity (A-375 [5]) | IC50 [6] | Activity [7] | Activity (A-375 [8]) | Activity [9] | Activity [10] | Activity (Oryctolagus cuniculus) | Activity [12] | Activity [13] | Activity [14] | Activity [15] | Activity [16] | Activity [17] | Activity [18] | other results
1 | CC(=O)Nc1cccc(-c2cnc3[nH]nc(C)c3c2)c1 | 94.6% | 96.4% | 95.9% | 10% | 69.9% | 45.7% | 893 nM | 45.3% | 37.3% | 95.6% | 72% | 75.7% | 95.5% | 100% | 16.5% | 48% | 94% | 28.9% | 48.8% | IC50 [11]: Not Active
2 | CC(=O)Nc1nccc(-c2c(-c3ccccc3)noc2C)n1 | 89.7% | 124% | 87.7% | 7.2% | 101% | 3.32% | 838 nM | 91.1% | 16.2% | 93% | 80.4% | 95.1% | 81.6% | 119% | 99.7% | 104% | 84% | 78.8% | 81.4% | IC50 ([11]; read-out: IC50): 2040 nM
3 | CCCC(=O)Nc1n[nH]c2ncc(-c3cccnc3)cc12 | 94% | – | 93% | 84% | 105% | – | – | – | – | – | 90% | 90% | 80% | 83% | 69% | 80% | 91% | 96% | 58% | –
